Data from patent publication US5188937A, “Layered sandwich assay method for chlamydia and materials therefor” (Becton, Dickinson and Company, priority 1991, dated 1993).

These molecules were tested against T1, Rabbit Liver Esterase (E.C. 3.1.1.1) (Oryctolagus cuniculus, UniProt P12337) (assay: Inhibition constants, esterase hydrolysis of o-nitrophenyl butyrate followed spectrophotometrically). Settings: RLE; 50 mM Tris pH=8.0; enzyme and inhibitor incubated at ambient temperature for 20 minutes.
T1 construct: from tissue; host or cells: rabbit liver
Assay type: biochemical
Protocol: Inhibition constants were measured in 50 mM Tris pH=8.0. Enzyme and inhibitor were incubated at ambient temperature for 20 minutes. Substrate for the enzyme was then added and the rate of hydrolysis was followed spectrophotometrically. The substrate for PLE and RLE was o-nitro-phenylbutrate and for AChE was acetyl thiocholine and Ellman's reagent.

T1 sequence (P12337 19-565): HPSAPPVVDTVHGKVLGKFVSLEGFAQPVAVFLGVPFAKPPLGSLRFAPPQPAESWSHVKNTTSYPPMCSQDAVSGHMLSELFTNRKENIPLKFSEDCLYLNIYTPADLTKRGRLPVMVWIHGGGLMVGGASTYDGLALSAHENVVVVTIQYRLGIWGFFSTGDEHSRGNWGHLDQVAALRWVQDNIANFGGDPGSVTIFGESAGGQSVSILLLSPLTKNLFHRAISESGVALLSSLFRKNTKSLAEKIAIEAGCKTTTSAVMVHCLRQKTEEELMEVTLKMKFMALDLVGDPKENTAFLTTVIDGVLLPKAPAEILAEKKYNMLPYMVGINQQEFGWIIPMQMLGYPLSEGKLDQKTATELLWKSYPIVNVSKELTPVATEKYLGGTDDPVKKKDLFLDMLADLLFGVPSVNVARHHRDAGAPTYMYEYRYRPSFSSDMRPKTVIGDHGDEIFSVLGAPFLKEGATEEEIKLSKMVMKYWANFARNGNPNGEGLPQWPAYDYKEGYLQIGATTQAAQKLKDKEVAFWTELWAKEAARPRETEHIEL

SMILES	Ki [nM]
O=C(CCCc1ccc(O)cc1)C(F)(F)F [1,1,1-trifluoro-5-(4-hydroxyphenyl)-2-pentanone]	10
O=C(CCCc1cccc(O)c1)C(F)(F)F [1,1,1-trifluoro-5-(3-hydroxyphenyl)-2-pentanone]	170
O=C(Cc1ccc(O)cc1)C(F)(F)F [1,1,1-trifluoro-3-(4-hydroxyphenyl)propanone]	2000
O=C(CCc1ccc(O)cc1)C(F)(F)C(F)(F)F [1,1,1,2,2-pentafluoro-5-(4-hydroxyphenyl)-3-pentanone]	800
O=C(CCCCc1ccc(O)cc1)C(F)(F)F [1,1,1-trifluoro-6-(4-hydroxyphenyl)-2-hexanone]	20
O=C(CCc1ccc(O)cc1)C(F)(F)F [1,1,1-trifluoro-4-(4-hydroxyphenyl)-2-butanone]	20
O=C(CCc1cccc(O)c1)C(F)(F)F [1,1,1-trifluoro-4-(3-hydroxyphenyl)-2-butanone]	100
